We go through 30 compounds from ChEMBL document CHEMBL1201862, “PubChem BioAssay data set” (2004).

SMILES strings stand for the structures. Calls of active or inactive are those of the source. For most assays here, no stated cut-off is given here; in the data, actives have a measured EC50 and inactives only a lower limit.

For orientation: AC50 means the concentration at which the activity in the assay is half-maximal. In general, GI50 refers to the concentration at which growth is held to half of that of the control.

Assay [1] is described as follows: Luminescence Cell-Based Dose Confirmation HTS to Identify Activators of 5'UTR Stem-Loop Driven Alpha-Synuclein mRNA Translation in H4 Neuroglioblastoma Cells. [Related pubchem assays: 1829 (Project Summary), 1814 (Primary HTS)]. Type of assay: functional.
A short description of assay [2]: Luminescence Cell-Based Dose Response HTS to Identify Activators of Luciferase Translation or Activity in H4 […] Cells. [Related pubchem assays: 1829 (Project Summary), 1814 (Primary HTS)]. The class given is functional.
Assay [3] concerns H4. Description: Luminescence Cell-Based Dose Response HTS to Identify Activators of 5'UTR Stem-Loop Driven Prion Protein mRNA Translation in H4 Neuroglioblastoma Cells. [Related pubchem assays: 1829 (Project Summary), 1814 (Primary HTS)]. The note with it: Homo sapiens. Type of assay: functional.
Assay [4] addresses T1, Heat shock factor protein 1 (Mus musculus, UniProt P38532).
T1 sequence (P38532 whole entry): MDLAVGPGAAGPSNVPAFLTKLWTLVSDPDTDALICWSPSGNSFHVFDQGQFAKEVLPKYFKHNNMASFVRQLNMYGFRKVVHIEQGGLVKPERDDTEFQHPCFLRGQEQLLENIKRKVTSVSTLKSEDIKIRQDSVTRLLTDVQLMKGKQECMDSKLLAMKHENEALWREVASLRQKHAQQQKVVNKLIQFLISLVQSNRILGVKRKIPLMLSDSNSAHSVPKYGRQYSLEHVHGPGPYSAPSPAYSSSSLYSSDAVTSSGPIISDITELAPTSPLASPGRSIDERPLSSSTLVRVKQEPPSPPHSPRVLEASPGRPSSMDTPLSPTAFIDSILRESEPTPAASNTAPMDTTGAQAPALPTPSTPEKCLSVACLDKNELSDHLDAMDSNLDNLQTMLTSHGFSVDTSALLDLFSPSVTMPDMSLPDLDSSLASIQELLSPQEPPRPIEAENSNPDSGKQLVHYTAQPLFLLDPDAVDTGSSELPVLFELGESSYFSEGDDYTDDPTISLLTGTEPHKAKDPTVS
Kind of assay: enhancement of HSF1-driven luciferase signal – cell-based, NIH3T3, luminescence, dose retest, confirmation (AID 435004).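 Further: stress induced by proteasome inhibitor MG132 added 30 min after compound; luciferase reporter driven by HSF1 response element in NIH3T3 cells; actives raise luminescence as potentiators of the MG132 stress response.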 The class given is functional.

The target of assay [5] is Cytochrome P450 2D6 (Homo sapiens, UniProt P10635).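 Further: CYP2D6 member of a cytochrome P450 panel assay.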
Assay [6] concerns the target Cytochrome P450 3A4 (Homo sapiens, UniProt P08684).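 Further: CYP3A4 tested as one member of a cytochrome P450 panel screen.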
In assay [7] the target is T2, RNA-binding protein pos-1 (Caenorhabditis elegans, UniProt G5EF15).
T2 sequence (G5EF15 whole entry): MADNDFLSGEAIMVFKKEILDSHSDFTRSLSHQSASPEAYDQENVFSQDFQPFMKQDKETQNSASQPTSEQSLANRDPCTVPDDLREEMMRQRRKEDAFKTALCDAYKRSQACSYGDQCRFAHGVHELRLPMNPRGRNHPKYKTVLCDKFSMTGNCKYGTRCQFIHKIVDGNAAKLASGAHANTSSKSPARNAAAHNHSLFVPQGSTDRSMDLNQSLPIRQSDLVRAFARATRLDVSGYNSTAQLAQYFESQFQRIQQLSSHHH
Description: disruptors of C. elegans POS-1 RNA interaction – biochemical, fluorescence polarization, dose response (AID 1964).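 Further: purified POS-1 fused to maltose binding protein made in E. coli; potency of compounds blocking POS-1 binding to fluorescent RNA.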

The target in assay [8] is T3, Zinc finger protein mex-5 (Caenorhabditis elegans, UniProt Q9XUB2).
T3 sequence (Q9XUB2 whole entry): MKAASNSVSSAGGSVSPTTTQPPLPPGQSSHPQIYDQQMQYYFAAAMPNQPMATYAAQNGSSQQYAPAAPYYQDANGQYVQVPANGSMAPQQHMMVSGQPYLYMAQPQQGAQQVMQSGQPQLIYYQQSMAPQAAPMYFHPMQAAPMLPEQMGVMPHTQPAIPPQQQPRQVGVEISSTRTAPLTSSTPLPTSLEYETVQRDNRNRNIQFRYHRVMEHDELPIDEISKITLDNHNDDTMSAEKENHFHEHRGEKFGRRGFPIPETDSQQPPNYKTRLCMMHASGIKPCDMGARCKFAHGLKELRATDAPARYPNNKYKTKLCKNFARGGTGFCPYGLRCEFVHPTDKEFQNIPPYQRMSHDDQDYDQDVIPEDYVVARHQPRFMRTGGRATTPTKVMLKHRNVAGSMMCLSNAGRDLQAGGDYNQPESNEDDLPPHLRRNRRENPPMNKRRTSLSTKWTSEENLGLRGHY
Kind of assay: potency of MEX-5 RNA-binding blockers – biochemical, C. elegans, fluorescence polarization, dose response (AID 1960). A general note: Polarisation of emitted light reports the rotation of a fluorescent probe.

Assay [9] concerns the target T4, Cytochrome P450 1A2 (Homo sapiens, UniProt P05177).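 Further: PubChem cytochrome P450 panel assay, CYP1A2 panel member.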
T4 sequence (P05177 whole entry): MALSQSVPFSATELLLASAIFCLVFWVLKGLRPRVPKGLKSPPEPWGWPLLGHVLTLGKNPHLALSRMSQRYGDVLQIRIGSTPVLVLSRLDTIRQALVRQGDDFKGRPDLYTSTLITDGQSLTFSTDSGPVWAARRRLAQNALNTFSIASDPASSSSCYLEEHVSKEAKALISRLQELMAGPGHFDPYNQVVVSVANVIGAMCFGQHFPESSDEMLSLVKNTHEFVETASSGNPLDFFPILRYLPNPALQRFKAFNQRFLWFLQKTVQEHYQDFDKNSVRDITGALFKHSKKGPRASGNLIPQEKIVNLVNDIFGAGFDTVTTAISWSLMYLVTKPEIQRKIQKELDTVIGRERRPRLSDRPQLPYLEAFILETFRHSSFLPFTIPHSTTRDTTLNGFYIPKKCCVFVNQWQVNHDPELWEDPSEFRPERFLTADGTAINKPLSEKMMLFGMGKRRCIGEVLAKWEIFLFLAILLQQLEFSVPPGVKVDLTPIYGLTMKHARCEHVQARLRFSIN

Assay [10] in a line: Luminescence Cell-Based Dose Retest to Confirm Inhibitors of Cancer Stem Cells. [Related pubchem assays (depositor defined):AID2717, AID2721]. The class given is functional. The note with it: Homo sapiens.
The target of assay [11] is T5, Corticotropin-releasing factor receptor 2/Corticotropin-releasing factor-binding protein (Homo sapiens, UniProt P24387+Q13324).
T5 sequence (Q13324 whole entry): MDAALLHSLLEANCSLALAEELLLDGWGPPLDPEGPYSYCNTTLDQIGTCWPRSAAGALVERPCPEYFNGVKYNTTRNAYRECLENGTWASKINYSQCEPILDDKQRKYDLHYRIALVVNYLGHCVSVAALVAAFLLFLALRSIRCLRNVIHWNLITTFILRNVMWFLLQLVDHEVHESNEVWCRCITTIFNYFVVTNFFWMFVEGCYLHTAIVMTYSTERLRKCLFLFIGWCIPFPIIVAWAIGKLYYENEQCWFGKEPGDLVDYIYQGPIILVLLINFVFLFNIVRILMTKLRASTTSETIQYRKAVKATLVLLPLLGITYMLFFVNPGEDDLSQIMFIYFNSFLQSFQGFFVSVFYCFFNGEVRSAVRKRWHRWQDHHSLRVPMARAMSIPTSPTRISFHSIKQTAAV
T5 sequence (P24387 whole entry): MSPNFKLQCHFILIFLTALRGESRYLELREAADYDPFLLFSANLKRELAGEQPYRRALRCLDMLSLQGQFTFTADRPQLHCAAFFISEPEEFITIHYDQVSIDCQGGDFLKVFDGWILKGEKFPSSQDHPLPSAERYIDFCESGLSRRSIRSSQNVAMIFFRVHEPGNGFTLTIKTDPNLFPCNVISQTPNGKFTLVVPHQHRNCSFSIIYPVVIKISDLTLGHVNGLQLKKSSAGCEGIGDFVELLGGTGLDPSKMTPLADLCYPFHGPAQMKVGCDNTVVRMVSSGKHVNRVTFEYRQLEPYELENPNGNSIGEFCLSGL
Kind of assay: activators of CRF receptor 2 with binding protein – uHTS hits, confirmation (AID 602473). The class given is functional. The following applies: read-out: EC50_Mean.

Assay [12] concerns P388/ADR. Kind of assay: cells. The class given is functional. The following applies: Mus musculus.
The test system of assay [13] is SN12K1. Description: cells. The class given is functional. The following applies: Homo sapiens.

Cytochrome P450 2D6, sequence (P10635 whole entry): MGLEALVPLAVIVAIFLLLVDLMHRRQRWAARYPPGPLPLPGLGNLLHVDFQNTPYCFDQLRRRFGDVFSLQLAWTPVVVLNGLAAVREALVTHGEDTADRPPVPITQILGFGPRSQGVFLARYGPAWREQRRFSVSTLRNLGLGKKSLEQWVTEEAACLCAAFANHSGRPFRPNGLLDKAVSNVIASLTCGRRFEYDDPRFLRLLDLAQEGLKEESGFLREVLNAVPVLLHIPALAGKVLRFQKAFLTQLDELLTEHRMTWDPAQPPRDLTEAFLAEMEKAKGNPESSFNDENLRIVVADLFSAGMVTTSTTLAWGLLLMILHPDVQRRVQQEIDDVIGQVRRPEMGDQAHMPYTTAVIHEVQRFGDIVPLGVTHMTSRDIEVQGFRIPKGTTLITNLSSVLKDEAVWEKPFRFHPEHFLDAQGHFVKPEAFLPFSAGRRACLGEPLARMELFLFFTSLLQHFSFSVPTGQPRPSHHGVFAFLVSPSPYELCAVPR
Cytochrome P450 3A4, sequence (P08684 whole entry): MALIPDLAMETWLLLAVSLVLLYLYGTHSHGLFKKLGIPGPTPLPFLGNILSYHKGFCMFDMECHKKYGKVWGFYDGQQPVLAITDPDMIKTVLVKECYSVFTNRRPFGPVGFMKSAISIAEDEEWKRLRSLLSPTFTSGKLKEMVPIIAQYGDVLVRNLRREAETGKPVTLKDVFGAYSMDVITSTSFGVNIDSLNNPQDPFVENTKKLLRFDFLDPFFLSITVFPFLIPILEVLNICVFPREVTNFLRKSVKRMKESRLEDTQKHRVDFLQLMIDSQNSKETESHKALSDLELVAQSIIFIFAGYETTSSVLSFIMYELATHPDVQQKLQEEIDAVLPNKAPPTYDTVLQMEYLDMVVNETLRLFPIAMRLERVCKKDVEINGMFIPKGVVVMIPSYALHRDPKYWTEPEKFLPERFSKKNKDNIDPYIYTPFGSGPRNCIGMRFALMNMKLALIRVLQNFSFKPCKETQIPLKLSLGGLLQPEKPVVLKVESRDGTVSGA

In the case of `COc1cccc(NC(=O)CCC(=O)Nc2ccc3nc(N4CCOCC4)cc(C)c3c2)c1`, the EC50 in [1], in assay [2] and in assay [3] was > 120 µM (not active) throughout.
For the compound `O=S1(=O)N=C(NCC(c2ccco2)N2CCCCC2)c2ccccc21` (configuration not stated), the EC50 in assay [4] was > 260 µM (inactive).
For `O=C(Nc1nc2c(F)cc(F)cc2s1)C1CCN(C(=O)c2ccc(F)cc2)CC1`, the values for the EC50 in assay [1], in [2] and in [3] were 3.61 µM (active), 8.78 µM (active) and 26.8 µM (active), respectively.
For `C=CCNC(SCC(=O)c1ccc(Cl)cc1)=C1C(=O)N(C)C(=O)N(C)C1=O` the same measures were 24.9 µM (active), > 120 µM (not active) and 19.5 µM (active).
Regarding `N#C[C@H](c1ccccc1)N1CCCN([C@@H](C#N)c2ccccc2)[C@H]1c1ccccc1O`, the AC50 in [5] was 5.01 µM (inconclusive).
`Cc1noc(C)c1C(=O)N1CCC2(CCCN(c3ccccc3)C2)CC1`: the AC50 in [5] is 12.6 µM (inconclusive); in assay [6], 15.8 µM (inconclusive).
For the compound `Cc1ccc(/C=N/N(Cc2ccccc2)c2ccccc2)o1`, the EC50 in [4] was > 260 µM (inactive).
`Cc1cc(/C=C2\C(=O)NC(=O)N(c3ccc(Br)cc3)C2=O)c(C)n1-c1cc(C(=O)O)cc(C(=O)O)c1`: the EC50 in [7] and in assay [8] was > 300 µM (not active) throughout.
`CCOC(=O)C1CCN(c2c(Nc3ccc4c(c3)OCCO4)c(=O)c2=O)CC1`: the EC50 was 18.9 µM (active) in assay [1], 18 µM (active) in [2] and 9.87 µM (active) in assay [3].
Regarding `C[C@H]1CN(C2CCC(C#N)(c3ccc(F)cc3)CC2)CC[C@@]1(C(=O)O)c1ccccc1` (some centres not stated), in assay [5], the AC50 was 10 µM (inconclusive).
Consider `O=C(Nc1cc(C(F)(F)F)ccc1Cl)c1cc2nc3c(c(C(F)(F)F)n2n1)CCCC3`, for which the EC50 in assay [1] was 1.53 µM (active); in [2] it was 0.365 µM (active); in assay [3], 0.195 µM (active).
For `Oc1ccc(Br)cc1/C=N/n1cnc2ccccc21` the same measures were 11 µM (active), 15.8 µM (active) and 17.9 µM (active).
As to `CCCC[C@@H]1C[C@H]1C(NC(=O)c1ccco1)c1ccccc1` (some centres not stated), the concentration at half-maximal activity (AC50) in assay [5] was 39.8 µM (inconclusive); in [6], 20 µM (inconclusive).
`Cc1ccc(C(c2nnnn2C2CCCC2)N2CCc3ccccc32)cc1` (configuration not stated): the EC50 in [4] is > 260 µM (inactive).
Take `CCC/C=C(\CCC)C(NS(C)(=O)=O)c1ccccc1` (configuration not stated): the AC50 was 39.8 µM (inconclusive) in assay [5], 25.1 µM (inconclusive) in [9] and 31.6 µM (inconclusive) in assay [6].
As for `C/C(=N\OC(=O)c1ccc(F)cc1)c1ccc(F)c(F)c1`, in assay [4], the EC50 was > 260 µM (inactive).
In the case of `COC(=O)CCCC1=CC2=CC(=O)C(C)(OC(=O)c3ccco3)C(=O)C2=CO1` (configuration not stated), the EC50 was 274 µM (inconclusive) in [7] and 22.3 µM (active) in [8].
The matching figures for `Cc1ccc(CNC(=O)/C(C#N)=C\c2ccc(N(C)C)cc2)cc1`: 43.5 µM (active) and > 300 µM (not active).
Regarding `O=C(c1csnn1)N1CCC2(CC1)CCN(c1ncccn1)CC2`, the AC50 in assay [5] was 39.8 µM (inconclusive).
For the compound `CC12CCC(C(=O)Nc3nc4ccccc4s3)(OC1=O)C2(C)C` (configuration not stated), the EC50 was > 60 µM (not active) in assay [1], 18.9 µM (active) in [2] and 12.7 µM (active) in assay [3].
For the compound `COCCn1c(N)c(N(Cc2ccccc2)C(=O)c2ccc(C#N)cc2)c(=O)[nH]c1=O`, in assay [4], the EC50 was > 260 µM (inactive).
For `CNC(=O)c1c(NC(=O)c2ccc(S(=O)(=O)N3CCCc4ccccc43)cc2)sc2c1CCN(C)C2`, the EC50 in assay [7] was > 300 µM (not active); in assay [8], > 300 µM (not active); in assay [11], 6.81 µM (active). Further, in [10], the AC50 was 0.206 µM (active).
Take `CCCOC1CCCN(C(=O)CCc2nnc(Cc3cccc(C)c3)o2)C1` (configuration not stated): the EC50 is 9.73 µM (active) in [1], 16.5 µM (active) in assay [2] and 16.5 µM (inconclusive) in assay [3].
In the case of `O[C@H](COc1ccccc1)CN1CCCCC1`, the AC50 in assay [5] was 5.01 µM (inconclusive).
Still for that read-out and setting: under `S=C1SCN(C2CCCCCCCCCCC2)CN1C1CCCCCCCCCCC1` stands 3.16 µM (inconclusive); under `CCN1CCCCC(=N/O)/C(=N/O)CCCC1`, 1.58 µM (inconclusive).
As to `Cc1ccc(-c2ccc(O)nn2)cc1`, the EC50 in assay [4] is > 260 µM (inactive).
For the compound `S=C(NCc1ccco1)N1CCN(c2ccccc2Cl)CC1`, the EC50 in assay [4] is > 260 µM (inactive).
Take `CC[C@@]1(O)C[C@H](OC2CC(N(C)C)C(OC3CC(O)C(OC4CCC(=O)C(C)O4)C(C)O3)C(C)O2)c2c(cc3c(c2O)C(=O)c2c(O)cccc2C3=O)[C@H]1C(=O)OC` (some centres not stated): the GI50 is 0.0333 µM (active) in assay [12] and 0.0236 µM (active) in assay [13].
Consider `COc1c2occc2c(OC)c2c(=O)cc(C)oc12` [KHELLIN], for which, in assay [5], the AC50 is 10 µM (inconclusive).
